Results published in patent US20240299359A1, “PHARMACEUTICAL COMPOSITION FOR ANIMALS CONTAINING 5-HYDROXY-METHYLIMIDAZOLIDINE-2,4-DIONE COMPOUND AS ACTIVE INGREDIENT” (KYONGBO PHARM. CO., LTD., priority 2021, published 2024).
“And” between values parts separate entries of the source, which are not always exact repeats. Identical values can stand only once.

Experiment: 13-week repeated oral toxicity: weight measurement
Type: in vivo, beagle
Procedure: During the 13-week test period starting from the day before administration, the weight was measured a total of 15 times before administration (pre), before administration on the day of administration, and every week over the 13-week test period after the first administration at a predetermined time (remaining feed measurement time) before administration of the test substance (on every Tuesday during the test period).

## CN1C(=O)NC(=O)C1O (centres unmarked) [KBP-001, 5-hydroxy-1-methylimidazolidine-2,4-dione]
200 mg/kg repeated oral (G2), female, week 0, individual animals
  Weight: 9.6 (2×) and 9.1
200 mg/kg repeated oral (G2), female, week 0, mean
  Weight, Mean: 9.4 kg
200 mg/kg repeated oral (G2), female, week 1, individual animals, in kg (unit assumed)
  Weight: 9.5 and 9.3 and 9.9
200 mg/kg repeated oral (G2), female, week 1, mean
  Weight, Mean: 9.6 kg
200 mg/kg repeated oral (G2), female, week 2, individual animals, in kg (unit assumed)
  Weight: 9.4 and 9.2 and 9.8
200 mg/kg repeated oral (G2), female, week 2, mean
  Weight, Mean: 9.5 kg
200 mg/kg repeated oral (G2), female, week 3, individual animals, in kg (unit assumed)
  Weight: 9.4 and 9.1 and 9.9
200 mg/kg repeated oral (G2), female, week 3, mean
  Weight, Mean: 9.5 kg
200 mg/kg repeated oral (G2), female, week 4, individual animals, in kg (unit assumed)
  Weight: 9.7 and 9.4 and 9.9
200 mg/kg repeated oral (G2), female, week 4, mean
  Weight, Mean: 9.7 kg
200 mg/kg repeated oral (G2), female, week 5, individual animals, in kg (unit assumed)
  Weight: 9.7 and 9.4 and 9.9
200 mg/kg repeated oral (G2), female, week 5, mean
  Weight, Mean: 9.7 kg
200 mg/kg repeated oral (G2), female, week 6, individual animals
  Weight: 9.6 (2×) and 9.1
200 mg/kg repeated oral (G2), female, week 6, mean
  Weight, Mean: 9.4 kg
200 mg/kg repeated oral (G2), female, week 7, individual animals, in kg (unit assumed)
  Weight: 9.6 and 9.3 and 9.7
200 mg/kg repeated oral (G2), female, week 7, mean
  Weight, Mean: 9.5 kg
200 mg/kg repeated oral (G2), female, week 8, individual animals, in kg (unit assumed)
  Weight: 9.5 and 9.3 and 9.8
200 mg/kg repeated oral (G2), female, week 8, mean
  Weight, Mean: 9.5 kg
200 mg/kg repeated oral (G2), female, week 9, individual animals, in kg (unit assumed)
  Weight: 9.6 and 9.4 and 9.9
200 mg/kg repeated oral (G2), female, week 9, mean
  Weight, Mean: 9.6 kg
200 mg/kg repeated oral (G2), female, week 10, individual animals, in kg (unit assumed)
  Weight: 9.6 and 9.3 and 10.0
200 mg/kg repeated oral (G2), female, week 10, mean
  Weight, Mean: 9.6 kg
200 mg/kg repeated oral (G2), female, week 11, individual animals
  Weight: 9.5 (2×) and 10.1
200 mg/kg repeated oral (G2), female, week 11, mean
  Weight, Mean: 9.7 kg
200 mg/kg repeated oral (G2), female, week 12, individual animals, in kg (unit assumed)
  Weight: 9.6 and 9.5 and 10.0
200 mg/kg repeated oral (G2), female, week 12, mean
  Weight, Mean: 9.7 kg
200 mg/kg repeated oral (G2), female, week 13, individual animals, in kg (unit assumed)
  Weight: 9.7 and 9.5 and 10.2
200 mg/kg repeated oral (G2), female, week 13, mean
  Weight, Mean: 9.8 kg
200 mg/kg repeated oral (G2), female, week pre, individual animals
  Weight: 9.6 (2×) and 9.1
200 mg/kg repeated oral (G2), female, week pre, mean
  Weight, Mean: 9.4 kg
200 mg/kg repeated oral (G2), male, week 0, individual animals
  Weight: 10.1 (2×) and 10.2
200 mg/kg repeated oral (G2), male, week 0, mean
  Weight, Mean: 10.1 kg
200 mg/kg repeated oral (G2), male, week 1, individual animals
  Weight: 10.1 (2×) and 10.2
200 mg/kg repeated oral (G2), male, week 1, mean
  Weight, Mean: 10.1 kg
200 mg/kg repeated oral (G2), male, week 2, individual animals, in kg (unit assumed)
  Weight: 9.9 and 10.1 and 10.0
200 mg/kg repeated oral (G2), male, week 2, mean
  Weight, Mean: 10 kg
200 mg/kg repeated oral (G2), male, week 3, individual animals
  Weight: 10.0 and 10.1 (2×)
200 mg/kg repeated oral (G2), male, week 3, mean
  Weight, Mean: 10.1 kg
200 mg/kg repeated oral (G2), male, week 4, individual animals
  Weight: 10.0 and 10.3 (2×)
200 mg/kg repeated oral (G2), male, week 4, mean
  Weight, Mean: 10.2 kg
200 mg/kg repeated oral (G2), male, week 5, individual animals, in kg (unit assumed)
  Weight: 10.1 and 10.5 and 10.3
200 mg/kg repeated oral (G2), male, week 5, mean
  Weight, Mean: 10.3 kg
200 mg/kg repeated oral (G2), male, week 6, individual animals, in kg (unit assumed)
  Weight: 10.0 and 10.1 and 10.3
200 mg/kg repeated oral (G2), male, week 6, mean
  Weight, Mean: 10.1 kg
200 mg/kg repeated oral (G2), male, week 7, individual animals
  Weight: 10.1 and 10.3 (2×)
200 mg/kg repeated oral (G2), male, week 7, mean
  Weight, Mean: 10.2 kg
200 mg/kg repeated oral (G2), male, week 8, individual animals, in kg (unit assumed)
  Weight: 10.1 and 10.3 and 10.2
200 mg/kg repeated oral (G2), male, week 8, mean
  Weight, Mean: 10.2 kg
200 mg/kg repeated oral (G2), male, week 9, individual animals, in kg (unit assumed)
  Weight: 10.1 and 10.4 and 10.3
200 mg/kg repeated oral (G2), male, week 9, mean
  Weight, Mean: 10.3 kg
200 mg/kg repeated oral (G2), male, week 10, individual animals, in kg (unit assumed)
  Weight: 10.2 and 10.4 and 10.3
200 mg/kg repeated oral (G2), male, week 10, mean
  Weight, Mean: 10.3 kg
200 mg/kg repeated oral (G2), male, week 11, individual animals, in kg (unit assumed)
  Weight: 10.1 and 10.4 and 10.3
200 mg/kg repeated oral (G2), male, week 11, mean
  Weight, Mean: 10.3 kg
200 mg/kg repeated oral (G2), male, week 12, individual animals
  Weight: 10.2 (2×) and 10.4
200 mg/kg repeated oral (G2), male, week 12, mean
  Weight, Mean: 10.3 kg
200 mg/kg repeated oral (G2), male, week 13, individual animals
  Weight: 10.2 (2×) and 10.4
200 mg/kg repeated oral (G2), male, week 13, mean
  Weight, Mean: 10.3 kg
200 mg/kg repeated oral (G2), male, week pre, individual animals, in kg (unit assumed)
  Weight: 10.1 and 10.3 and 10.2
200 mg/kg repeated oral (G2), male, week pre, mean
  Weight, Mean: 10.2 kg
500 mg/kg repeated oral (G3), female, week 0, mean
  Weight, Mean: 9.5 kg
500 mg/kg repeated oral (G3), female, week 1, mean
  Weight, Mean: 9.6 kg
500 mg/kg repeated oral (G3), female, week 2, mean
  Weight, Mean: 9.5 kg
500 mg/kg repeated oral (G3), female, week 3, mean
  Weight, Mean: 9.6 kg
500 mg/kg repeated oral (G3), female, week 4, mean
  Weight, Mean: 9.8 kg
